This is an account of results in patent US20150268254A1, “SEBOCYTE CELL CULTURING AND METHODS OF USE” (Children's Hospital Medical Center, priority 2012, published 2015).

Test [1] concerns sebocytes. Conditions: known effect of reference compound; cited from earlier work.
The subject of test [2] is SSG3 cells. Put plainly: Real-time PCR of lipogenic gene expression in primary SSG3 sebocytes. The format is cell-based, human. The protocol: To ablate TGFβRII in SSG3 cells, shRNA vectors from the CCHMC Heart Institute lenti-shRNA library core (shRNA TGFβRII #197031 and 194992 and a shRNA control) were used. The human library was purchased from Sigma-Aldrich (MISSION shRNA; St. Louis, Mo.). Viral vector was produced by the Viral Vector Core at the Translational Core Laboratories, Cincinnati Children's Hospital Research Foundation. Cells were grown to 80% confluency in 6-well plates before being infected with the lentivirus for 48 h. Infected cells were selected with 1 µg/ml puromycin (Sigma) for 48 h. Following selection, TGFβRII knock down cells were grown in regular media for 48 h before being activated with 5 ng/ml TGFβ1 for 24 h.
(§1) Total RNA was isolated using a Rneasy Mini Kit (Qiagen, Germantown, Md.) and used to produce cDNA (Maxima first strand cDNA synthesis kit, Fermentas, Waltham, Mass.). Reverse transcription (RT) reactions were diluted to 10 ng/pl and 1 pl of each RT was used for real-time PCR. Real-time PCR was performed using the CFX96 real-time PCR System, CFX Manager Software and the SsoFast EvaGreen Supermix reagents (Biorad, Hercules, Calif.). All reactions were run in triplicate and analyzed using the […] with relative expression normalized to GAPDH.
(§2) For Nile red staining, cells or OCT sections were fixed 10 minutes at room temperature in 4% formaldehyde. After 3 wash in 1×PBS, staining with 0.1 pg/ml of Nile red (Sigma) was performed in 0.15M NaCl for 15 minutes at room temperature. For Oil red 0 staining, cells were fixed 15 minutes in 10% formalin, wash with water for 10 minutes and 60% isopropanol before being stained with Oil red 0 (0.7% in 60% isopropanol) for 45 minutes. Cells were rinsed with 60% isopropanol and the nuclei stained with haematoxylin. To trigger differentiation of sebocytes in vitro, linoleic acid (Sigma, 0.1 mM) was added directly to sebocyte media. To prepare cells for extraction of lipids, 20-30 millions of cells were pelleted, washed with 1×PBS and lipid were preserved in the dark at −80° C. under argon until analysis. The qualitative and quantitative composition of lipids in scalp-derived human sebocytes was determined using an Agilent 5973N Gas chromatograph/Mass spectrometer with a SPE cartridge (solid phase extraction) and was performed by Synelvia S.A.S (Labege, France).
For orientation: In qPCR the cycle at which signal appears reflects the starting amount.

Test [3] has as its system sebocytes-derived from breast and face. Nature of the test: Real-time PCR of lipogenic genes in breast- and face-derived sebocytes. The format is cell-based, human. Conditions: 5 ng/ml TGFβ1, 24 h. The protocol: as §1
RNA was isolated from sebocytes-derived from breast and face untreated or treated with 5 ng/ml of TGFβ1 for 24 h and used for real-time PCR. Two experiments were performed and all qPCR reactions were performed in triplicate. Data were normalized to GAPDH expression for each cell population and changes in relative expression were determined using untreated cells as a reference point.

Test [4] deals with SSG3 cells. Nature of the test: Lipogenesis assays (Nile red, Oil red O, electron microscopy, Nile red FACS) in SSG3 cells. The format is cell-based, human. On the procedure:
as §2
Cells were cultured in 6-well plates at 80% confluence and infected with the lentivirus expressing the shRNAs as previously described. After puromycin selection for 48 h, cells were washed in 1×PBS and treated with working medium with or without Linoleic acid (0.1 mM) for 24 h. The cells were trypsinized, washed once with 1×PBS and neutral lipids were labeled with the fluorescent dye Nile red (1 pg/ml in PBS). 10,000 cells per sample were analyzed using a FACS Canto I (BD Biosciences) equipped with a blue laser (488 nm excitation).
Cells were grown at 80% confluency in sebocyte media and rinsed once with 0.175M sodium cacodylate buffer. Cells were fixed in 3% glutaraldehyde/0.175M cacodylate buffer for 1 hour at 4° C. Dishes were washed twice with 0.175M sodium cacodylate buffer. Cells were post fixed in 1% osmium tetroxide/cacodylate buffer for 1 hour at 4° C. before being washed three times with 0.175M sodium cacodylate buffer. After the final wash with 1.5 ml, cells were scraped and centrifuged for 5 min at 10K. The cell pellet was then resuspended in 1 ml 1% agarose (Type IX ultra-low gelling tempt, Sigma) overnight at 4° C. The samples were then processed through a graded series of alcohols, infiltrated and embedded in LX-112 resin (Ladd Research, Williston, Vt. After polymerization at 60° C. for three days, ultrathin sections (100 nm) were cut using a Reichert-Jung Ultracut E microtome and counterstained in 2% aqueous uranyl acetate and Reynolds lead citrate. Images were taken with a transmission electron microscope (Hitachi H-6750) equipped with a digital camera (AMT 2k×2K tem CCD).

Test [5] deals with SSG3 sebocytes. Nature of the test: Immunoblot of Smad2 phosphorylation in SSG3 sebocytes. The format is cell-based, human. Conditions: 5 ng/ml TGFβ1, one hour. In general terms: Immunoblotting shows a protein as a band on a membrane.
Test [6] has as its system SEB-1. Nature of the test: Immunoblot of Smad2 phosphorylation in SEB-1. The format is cell-based, human. Conditions: 5 ng/ml TGFβ1, one hour.
Test [7] has as its system NIKS. Nature of the test: Immunoblot of Smad2 phosphorylation in NIKS keratinocytes. The note with it: 5 ng/ml TGFβ1, one hour. The format is cell-based, human.
For test [8], the system named is SEB-1. Nature of the test: Real-time PCR of PPARγ expression in immortalized sebocyte line SEB-1. The format is cell-based, human. The note with it: SEB-1, 0.1 mM linoleic acid, 48 h, vs untreated. On the procedure: as §1
as §2, with “To trigger differentiation of sebocytes in vitro, linoleic acid (Sigma, 0.1 mM) was added directly to sebocyte media. To prepare cells for extraction of lipids, 20-30 millions of cells were pelleted, washed with 1×PBS and lipid were preserved in the dark at −80° C. under argon until analysis.” left out

Setting [9] is: SSG3, 5 ng/ml TGFβ1, 24 h, vs untreated.
Setting [10] is: TGFβRII-deficient SSG3 cells, TGFβ1.

Regarding `CN(CCOc1ccc(CC2SC(=O)NC2=O)cc1)c1ccccn1` (stereo not shown) [Rosglitazone], the effect on lipogenesis result in test [1] is recorded as “decrease lipogenesis”.

Regarding `CC1=C(/C=C/C(C)=C/C=C/C(C)=C\C(=O)O)C(C)(C)CCC1` [Isotretinoin, 13-cis retinoic acid], in test [1], the “effect on cell cycle” value is listed as “cell cycle arrest” and the effect on proliferation entry is “anti-proliferative effect on sebocytes”.

On to `CC(=O)O[C@]1(C(C)=O)CC[C@H]2[C@@H]3C=C(Cl)C4=CC(=O)[C@@H]5C[C@@H]5[C@]4(C)[C@H]3CC[C@@]21C` [Cyproteron acetate], for which the effect on lipogenesis result in test [1] is recorded as “decrease lipogenesis”.

As to “TGFβ1: exogenously recombinant TGFβ1, Transforming Growth Factor β ligand”, in test [2] (setting [9]), the “mRNA expression of FADS2” value was “significantly decreased” and the “mRNA expression of PPARγ” value is “significantly decreased”. Further, in test [2] (setting [10]), the “decrease in FADS2 gene expression after TGFβ1” value is reported as “not detected” and the “decrease in PPARγ gene expression after TGFβ1” value was “not detected”. Moreover, the TGFβRII expression result in test [2] (control SSG3 cells treated with TGFβ for 24 h) is “decrease of TGFβRII”. Also, in test [3], the FADS2 expression entry is listed as “decreased significantly” and the PPARγ expression entry is “decreased significantly”. The lipid production result in test [4] (SSG3 expressing TGFβRII shRNA, TGFβ1 5 ng/ml, 24 h) is given as “no effect on the lipid production”. Further, the lipid inclusion entry in test [4] (SSG3 with non-targeting shRNA control, TGFβ1 5 ng/ml, 24 h) is reported as “decrease in lipid inclusion”. The “Smad2 activation (phosphorylated Smad2)” value in test [5] was “activate Smad2”. Besides, the “Smad2 activation (phosphorylated Smad2)” value in test [6] is “activate Smad2”. For the same compound, in test [7], the “Smad2 activation (phosphorylated Smad2)” value is on record as “activate Smad2”.

Regarding `C[C@]12CC[C@H](O)CC1=CC[C@@H]1[C@@H]2CC[C@]2(C)C(=O)CC[C@@H]12` [DHEA, 5-Dehydroepiandrosterone], the effect on lipogenesis entry in test [1] is “increase lipogenesis”.

As for `CCCCC/C=C\C/C=C\CCCCCCCC(=O)O` [linoleic acid], in test [2] (SSG3 cells, 0.1 mM linoleic acid, 24 h and 48 h, vs untreated), the FADS2 expression entry is given as “significant increase of FADS2 expression”. Besides, the PPARγ expression entry in test [2] (SSG3 cells, 0.1 mM linoleic acid, 48 h, vs untreated) was “increase in PPARγ”; in test [8], “do not show any significant changes”. Moreover, the “Nile red flow cytometry: fluorescence (neutral lipids) and granularity” value in test [4] (SSG3, 0.1 mM linoleic acid, 24 h) was “increase of fluorescence and granularity”. The “lipid droplets by electron microscopy” value in test [4] (SSG3, after linoleic acid treatment vs untreated) is listed as “increase of lipid droplets with higher electron density”. Further, in test [4] (SSG3, two days of linoleic acid treatment (0.1 mM)), the “cellular lipid distribution by Nile red stain” value is “producing lipids”.

As for `C[C@]12CCC(=O)C[C@@H]1CC[C@@H]1[C@@H]2CC[C@]2(C)[C@@H](O)CC[C@@H]12` [5α-DHT, di-hydrotestosterone], in test [1], the effect on lipogenesis result is on record as “increase lipogenesis” and the effect on proliferation entry is reported as “increase proliferation”.
